Test results: patent publication US9296687B2, “Modulators of HSP70/DnaK function and methods of use thereof” (The Trustees of the University of Pennsylvania, priority 2008, dated 2016)
“Also recorded” adds a separate entry of the source.

Experiments:
[1] = tested on: Eμ-Myc transgenic mice; assay: Eμ-Myc mouse model of lymphomagenesis; format: in vivo; settings: 20 mg/kg weekly i.p. from 6 weeks of age
Procedure: To evaluate the efficacy of PES as a chemopreventative agent, Eμ-Myc transgenic mice were injected every 5 days, starting at 8 weeks of age, with either vehicle or PES (40 mg/kg) prepared in PBS. All animals received a total of 7 injections, either with PES or vehicle. Consequently, no injection was given after day 86. All mice were observed daily for signs of morbidity and the development of lymphoma. All experiments with mice were approved by, and conformed to, the guidelines of the Institutional Animal Care and Use Committee of the Fox Chase Cancer Center. These mice may also be used to advantage to test the beneficial therapeutic combinations of agents and/or treatments described herein.
Beginning at 6 weeks of age, Eμ-myc transgenic mice were treated either with vehicle, 20 mg/kg PES or 20 mg/kg PES-Cl with weekly i.p. injections of tested compound (FIG. 27).

[2] = tested on: H1299 and FaDu cells; assay: Western blot of autophagy and apoptosis markers; format: cell-based, human; settings: 10 μM, 24, 48 and 72 hours
Procedure: Tumorogenic cells H1299 and FaDu cells were seeded in 10 cm plates and were treated with 10 μM PES or 10 μM PES-Cl. DMSO treated cells were used as a vehicle treated control. Twenty-four, 48 and 72 hours post-treatment the cells were scrapped and protein extracts were generated. Western blotting was performed as described hereinabove. The antibodies used in the protocol were p62 (Santa Cruz), Hsp70 (Cell Signaling), cleaved lamin A (Cell Signaling), Hsp40 (Cell Signaling), γH2A.X (Millipore), and actin (Sigma).

[3] = tested on: FADU cells; assay: Guava Nexin assay (Annexin V / 7-AAD); format: cell-based, human; settings: 10 μM, 24, 48 and 72 hours
From the text: (§1) The effect of PES-Cl on apoptosis was observed using Guana Nexin Reagent (Millipore) in H1299 and FaDu cells. The Guana Nexin Assay utilizes Annexin V-PE to detect phosphatidylserine (PS) on the external membrane of apoptotic cells. The cell impermeant dye, 7-AAD, is also used in the Guava Nexin Assay as an indicator of cell membrane structural integrity. 7-AAD is excluded from live, healthy cells as wells as early apoptotic cells. Three populations of cells can be distinguished in the assay: Non-Apoptotic cells (Annexin V(−) and 7-AAD(−)), Early Apoptotic cells (Annexin V(+) and 7-AAD(−)), and Late Stage Apoptotic and dead cells (Annexin V(+) and 7-AAD(+)). The H1299 and FaDu cells were seeded on 24-well plates and treated with 10 μM PES or 10 μM PES-Cl. DMSO treated cells were used as a vehicle control. Four, 24 and 48 hours post-treatment, the H1299 cells were washed with PBS and trypsinized. For FaDu cells, the time course was 24, 48 and 72 hours. The cells were pelleted and resuspended in Guava Nexin reagent as per the manufacturer instructions and the readings were obtained with a Guava reader (Guava Technologies, Millipore). The total number of cells that were in Late Stage Apoptosis or dead (by necrotic or apoptotic mechanisms) was analyzed in density plots to determine as Annexin V positive.

[4] = tested on: H1299 cells; assay: Guava Nexin assay (Annexin V / 7-AAD); format: cell-based, human; settings: 10 μM, 4, 24 and 48 hours
From the text: as §1

[5] = tested on: H1299 and FaDu; 6113 and WI38; assay: MTT assay, tumorogenic versus normal fibroblast cell lines; format: cell-based, human; settings: various concentrations, 48 hours
Procedure: (§2) H1299 cells were seeded on […] and treated with 10 μM PES or 10 μM PES-Cl. DMSO treated cells were used as a control and the proliferation of the H1299 cells was observed over 24 and 48 hours of treatment. The cells were imaged by light microscopy with 20× magnification (FIG. 28). Non-tumorogenic and tumorogenic cells were then treated with PES-Cl to observe its toxicity and effect on proliferation. Two tumorogenic cell lines (H1299 and FaDu) and two normal fibroblast cell lines (6113 and WI38) were seeded on a 96-well plate. The cells were treated with various concentrations of PES and PES-Cl. Forty-eight hours post-treatment MTT assays (Cayman Chemical Company) were performed (FIG. 29).

[6] = tested on: H1299 cells; assay: Proliferation observed by light microscopy; format: cell-based, human; settings: 10 μM, 24 and 48 hours
Procedure: as §2

[7] = tested on: SKBR3 human breast adenocarcinoma cells; assay: MTT assay; format: cell-based; settings: various concentrations, 72 hours
Procedure: SKBR3 human breast adenocarcinoma cells were seeded and treated with PES and PES-Cl at various concentrations.

[8] = tested on: Scc56 cell line; assay: MTT cell viability assay, PES-Cl with Temsirolimus; format: cell-based, human; settings: singly and together, varying concentrations
Procedure: PES-Cl was tested in combination with Temsirolimus, an mTOR inhibitor, to determine whether they act synergistically to kill cells. Head and neck cancer cells of the Scc56 cell line were treated with PES-Cl and Temsirolimus, singly and together, at varying concentrations utilizing an MTT assay.

[9] = target: HSP70 (Homo sapiens, UniProt P0DMV8); assay: Capture of HA-tagged HSP70 constructs from transfected H1299 cells with biotinylated compound; format: binding; parameters: expressed in transfected cells; host or cells: H1299; settings: biotinylated compound, 6 hours
Procedure: FIG. 1. PES Binds to HSP70. (A) Whole cell extracts (WCE) prepared from A875 and BCL-xL over-expressing U2OS human osteosarcoma cells (BX-U2OS) cells, treated with Biotin or Biotin-PES (B-PES), were captured using NeutrAvidin agarose resins. HSP70-family proteins were identified as the major product in the excised band of ˜70 kDa shown in both Coomassie gels. (B and C) WCE were prepared from the cell lines indicated following 24 h treatment with 20 μM Biotin or B-PES and examined for the expression of proteins indicated (left panel of B and C) by western blot analysis; note that different exposure times were used to visualize these proteins. […] (D) In vitro evidence for an interaction between B-PES and HSP70. Full-length human HSP70 and human HSP90 proteins were in vitro translated in the presence of ^35S-methionine, mixed with B-PES coupled to NeutrAvidin resins, and eluted using 100 mM DTT. The resulting DTT eluates were separated by polyacrylamide gel electrophoresis (SDS-PAGE) and visualized by autoradiography. (E) B-PES interacts with the C-terminal region of HSP70. H1299 cells were transfected with the indicated hemagglutinin (HA)-tagged constructs and exposed to B-PES. B-PES containing complexes were captured by NeutrAvidin Resins, eluted following 100 mM DTT treatment, and immunoblotted with anti-HA antibody following SDS-PAGE. (F) Non-transformed human IMR90 fibroblasts or H1299 lung carcinoma cells were treated with the indicated concentrations of PES for 24 h and cell viability was determined by MTT assays. (G) WCE were prepared from the cell lines indicated following 5 hr treatment with 20 μM PES or B-PES and examined for the expression of proteins indicated (left panel) by western blot analysis; note that different exposure times were used to visualize these proteins. B-PES-containing complexes were captured by NeutrAvidin resins, eluted following 50 mM DTT treatment, and immunoblotted using the indicated antibodies.
The free amide group of PES-Cl was biotinylated and added to HA-tagged HSP70-transfected H1299 cells. The treatment of the cells occurred for 6 hours. The complexes were pulled down with NeutrAvidin beads, eluted with 100 mM DTT treatments, separated with SDS-PAGE and detected with anti-HA antibody (Millipore) by Western blot.
Docking studies were performed using the C-terminal HSP70 crystal structure (FIG. 32) to elucidate the PES binding site in silico (FIG. 33). Blind docking methods were used in the program AutoDock to locate potential PES binding sites. These methods use a course grid docking approach, encompassing the entire protein, to identify favorable binding sites using a known binding ligand, and are examined by hand to support the AutoDock data. […]

Chain of HSP70 (P0DMV8 2-641): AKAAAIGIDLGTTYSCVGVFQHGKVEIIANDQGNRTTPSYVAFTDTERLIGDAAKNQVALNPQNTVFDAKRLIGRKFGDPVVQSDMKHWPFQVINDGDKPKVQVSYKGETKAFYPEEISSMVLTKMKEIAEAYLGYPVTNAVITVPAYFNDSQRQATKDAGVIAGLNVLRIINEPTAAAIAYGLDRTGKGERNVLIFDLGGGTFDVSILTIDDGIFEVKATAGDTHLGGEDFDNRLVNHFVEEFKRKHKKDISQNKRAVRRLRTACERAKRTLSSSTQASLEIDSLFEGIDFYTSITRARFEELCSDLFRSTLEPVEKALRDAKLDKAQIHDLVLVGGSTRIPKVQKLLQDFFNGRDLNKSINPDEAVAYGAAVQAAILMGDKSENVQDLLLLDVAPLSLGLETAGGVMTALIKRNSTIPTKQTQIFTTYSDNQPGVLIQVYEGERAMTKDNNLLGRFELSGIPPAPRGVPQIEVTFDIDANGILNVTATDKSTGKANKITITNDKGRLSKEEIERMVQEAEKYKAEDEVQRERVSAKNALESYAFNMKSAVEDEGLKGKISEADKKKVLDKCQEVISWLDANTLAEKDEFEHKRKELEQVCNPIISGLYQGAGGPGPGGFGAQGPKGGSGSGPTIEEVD

## NS(=O)(=O)C#Cc1cccc(Cl)c1 [PES-Cl, 2-(3-chlorophenyl)-ethynesulfonamide]
[1]
  survival: extended survival
[2]
  apoptosis: induced apoptosis
  autophagy: inhibited autophagy
[3]
  apoptosis and cell death (Annexin V positive cells): induced apoptosis and cell death; also recorded: superior compound for induction of apoptosis
[4]
  apoptosis and cell death (Annexin V positive cells): induced apoptosis and cell death; also recorded: superior compound for induction of apoptosis
[5]
  cell survival, tumorogenic versus non-tumorogenic cells: greater concentration dependent effect on cell survival in tumorogenic cells; also recorded: superior and specific inhibitor of proliferation of tumor cells with limited toxicity to normal cells
[6]
  proliferation: inhibits the proliferation of H1299 cells
[7]
  cytotoxicity compared to PES: superior cytotoxic agent when compared to PES
[8]
  combination effect with Temsirolimus: synergistic effect resulting in enhanced dose-dependent cytotoxicity
[9]
  interaction with HA-tagged HSP70: interact with HSP70
